In PMC10683025, “Discovery of a Hydroxylamine-Based Brain-Penetrant EGFR Inhibitor for Metastatic Non-Small-Cell Lung Cancer” (Journal of Medicinal Chemistry, 2023):
Values after ≈ are worked out from the molar mass of the structure shown.

Legend:
[1] = Lipophilicity, shake-flask; type: physicochemical; settings: 1-octanol/PBS; 1-octanol and PBS (pH 7.4); read-out: logD7.4
Procedure: Compound lipophilicity was determined by Pharmaron, Inc. using the shake-flask method with 1-octanol and PBS (pH 7.4). Each compound was assessed in duplicate (n = 2) at 1 μM in a 96-well plate shaken at 25 °C and 2000 rpm for 2 h. Samples were analyzed by liquid chromatography and tandem mass spectrometry (LC-MS/MS).

[2] = Brain tissue binding by equilibrium dialysis; type: in vitro ADME; settings: rat
Procedure: (§1) Plasma protein binding and brain tissue binding were determined by Pharmaron, Inc. using the equilibrium dialysis method. […] Following incubation, the samples were analyzed by LC-MS/MS and the concentrations of the compounds were determined in the buffer and plasma solution chambers.

[3] = Plasma stability; type: in vitro ADME, Sprague-Dawley rat; settings: rat plasma
Procedure: (§2) Assessment of compounds to determine stability in incubations containing plasma of human (Pharmaron) and Sprague-Dawley rat (IPHASE) was performed by Pharmaron, Inc. using the compound […] approach. Compounds were assessed in duplicate (n = 2) and incubated in plasma at 5 μM and samples (50 μL) were taken at 0, 15, 30, 60, and 120 min time points for analysis by LC-MS/MS. Peak area ratios were determined from the extracted ion chromatogram and the percent compound remaining at each time point was calculated by the following equation: [drawing 2] where peak area ratiot min is the peak area ratio of control and test compound at t min and peak area ratio0 min is the peak area ratio of control and test compound at zero time point.

[4] = Plasma protein binding by equilibrium dialysis; type: in vitro ADME
Procedure: as §1

[5] = Solubility assay; type: physicochemical; settings: buffer, pH 7.4, aqueous buffer; read-out: Aq. Sol.
Procedure: Solubility was determined by Pharmaron, Inc. and each compound was assessed in duplicate (n = 2) by adding 15 μL of compound stock solution (10 mM in DMSO) into a 96-well plate along with 485 μL of buffer followed by shaking at 25 °C, 1100 rpm for 2 h. Wells were filtered, and samples (5 μL) were taken followed by dilution with an equal volume of DMSO (5 μL) and 490 μL of aqueous solution. Samples were analyzed by LC-MS/MS.

[6] = Metabolic stability in hepatocytes; type: in vitro ADME, human; settings: for Remaining Percentages: human hepatocytes
Procedure: (§3) Microsome stability was assessed in duplicate (n = 2) in the presence and absence of nicotinamide adenine dinucleotide phosphate (NADPH) with liver microsomes (0.5 mg/mL) from human (BD Gentest) and Sprague-Dawley rats (BD Gentest). Compounds were incubated in liver microsomes at 1 μM and samples (30 μL) were taken at 0.5, 15, 30, 45, and 60 min time points for analysis by LC-MS/MS. Hepatocyte stability was assessed in duplicate (n = 2) at a working cell density of 0.5 × 10^6 cells/mL with hepatocytes from human (BiolVT), Sprague-Dawley rat (BiolVT), cynomolgus monkey (RILD) or beagle dog (BiolVT). […] The in vitro half-life and intrinsic clearances were determined as previously described.[76]
(§4) In vitro half-life (in vitro t1/2) was determined from the slope value in [drawing 1] where k was determined by linear regression of the natural logarithm of the remaining percentage of the parent drug vs the incubation time curve.

[7] = Plasma protein binding by equilibrium dialysis; type: in vitro ADME, mouse
Procedure: as §1

[8] = Plasma stability; type: in vitro ADME, human; settings: human plasma
Procedure: as §2

[9] = Metabolic stability in liver microsomes; type: in vitro ADME, Sprague-Dawley rat; settings: rat LM
Procedure: as §3, §4

[10] = design: method as in PMID 33028591; settings: single oral dose of 10 mg/kg in Han Wistar rats ref 18; cited from earlier work
[11] = Metabolic stability in hepatocytes; type: in vitro ADME, Sprague-Dawley rat; settings: rat hepatocytes
Procedure: as §3, §4

[12] = test system: P-gp and BCRP; design: method as in ref 17−20; settings: ref 17−20; cited from earlier work
[13] = Metabolic stability in liver microsomes; type: in vitro ADME, human; settings: human LM
Procedure: as §3, §4

[14] = cited from earlier work
[15] = Sprague-Dawley, rat, rat plasma

## COc1cc2ncnc(Nc3ccc(F)c(Cl)c3)c2cc1OCCCN1CCOCC1 [Gefitinib (1), Gefitinib, reference compound]
[1]
  logD at 2 h, 1 µM: 3.7
[2]; Sprague-Dawley (SD), rat brain homogenate
  recovery at 6 h, 5 μM: 99.7%
[2]; Sprague-Dawley, brain homogenate, read-out: fu,brain% / %Unboundbrain
  fraction unbound at 6 h, 5 μM: 0.006
[2]; Sprague-Dawley, rat brain homogenate
  remaining at 6 h, 5 μM: 105%
[2]; Sprague-Dawley, rat brain homogenate, read-out: %Boundbrain (converted)
  fraction unbound at 6 h, 5 μM: 0.006
[3]; 15 min
  Remaining Percentages: 100.11%
[3]; 30 min
  Remaining Percentages: 98.28%
[3]; 60 min
  Remaining Percentages: 95.04%
[3]; 120 min
  Remaining Percentages: 93.66%
[3]; ∞ = no degradation
  t1/2: ∞
[4]; Sprague-Dawley, rat, plasma, 5 μM, read-out: fu,plasma% / %Unbound
  fraction unbound at 6 h, 5 μM: 0.0249
[4]; [15]
  recovery at 6 h, 5 μM: 105%
  remaining at 6 h, 5 μM: 105%
[4]; Sprague-Dawley, rat, rat plasma, read-out: %Bound (converted)
  fraction unbound at 6 h, 5 μM: 0.0249
[4]; human, human plasma
  recovery at 6 h, 5 μM: 106%
  remaining at 6 h, 5 μM: 98.8%
[4]; human, human plasma, read-out: fu,plasma% / %Unbound (converted)
  fraction unbound at 6 h, 5 μM: 0.0766
[4]; plasma, human, 5 μM, read-out: fu,plasma% / %Unbound (converted)
  fraction unbound at 6 h, 5 μM: 0.0766
[5]
  solubility kinetic at 2 h: 4 µM (≈ 1.79 µg/mL)
[6]; 15 min
  Remaining Percentages: 97.55%
[6]; 30 min
  Remaining Percentages: 94.76%
[6]; 60 min
  Remaining Percentages: 73.38%
[6]; 90 min
  Remaining Percentages: 50.47%
[6]; 120 min
  Remaining Percentages: 39.53%
[6]; human, hepatocytes, read-out: HEP t1/2
  half-life at 2 h, 1 µM: 1.39 h
[7]; CD-1, mouse, mouse plasma
  recovery at 6 h, 5 μM: 99.4%
  remaining at 6 h, 5 μM: 98%
[7]; CD-1, mouse, mouse plasma, read-out: %Bound (converted)
  fraction unbound at 6 h, 5 μM: 0.0781
[7]; CD-1, plasma, mouse, 5 μM, read-out: fu,plasma% / %Unbound
  fraction unbound at 6 h, 5 μM: 0.0781
[8]; 15 min
  Remaining Percentages: 103.40%
[8]; 30 min
  Remaining Percentages: 103.92%
[8]; 60 min
  Remaining Percentages: 101.33%
[8]; 120 min
  Remaining Percentages: 104.45%
[8]; ∞ = no degradation
  t1/2: ∞
[9]; +Cofactors, 15 min
  Remaining Percentage: 63.13%
[9]; +Cofactors, 30 min
  Remaining Percentage: 37.48%
[9]; +Cofactors, 45 min
  Remaining Percentage: 25.25%
[9]; +Cofactors, 60 min
  Remaining Percentage: 19.26%
[9]; -Cofactors, 60 min
  Remaining Percentage: 115.38%
[10]
  Kp,uu (AUC0−16h): 0.0092
[11]; 15 min
  Remaining Percentages: 66.86%
[11]; 30 min
  Remaining Percentages: 59.92%
[11]; 60 min
  Remaining Percentages: 39.44%
[11]; 90 min
  Remaining Percentages: 21.69%
[11]; 120 min
  Remaining Percentages: 13.94%
[12]
  efflux status against common efflux transporters: P-gp and BCRP Substrate
[13]; +Cofactors, 15 min
  Remaining Percentage: 39.75%
[13]; +Cofactors, 30 min
  Remaining Percentage: 19.60%
[13]; +Cofactors, 45 min
  Remaining Percentage: 12.23%
[13]; +Cofactors, 60 min
  Remaining Percentage: 8.14%
[13]; -Cofactors, 60 min
  Remaining Percentage: 100.00%

## hydroxylamine
[14]
  pKa: 5.9
